Measured values as given in ChEMBL document CHEMBL1201862, “PubChem BioAssay data set” (2004).
Blank lines part the entries; values can stand above or below the compound they belong to. Calls of active or inactive are those of the source. Unless noted, no cut-off for these calls is given here.

How the values were obtained:
[1] = target: T1, Delta-type opioid receptor (Homo sapiens, UniProt P41143); experiment: SAR Analysis of Antagonists of the DOR Receptor using an Image-Based Assay - Set 2. [Related pubchem assays (depositor defined):AID1777, AID1785, AID1786, AID1966, AID2133, AID2136, AID2284, AID2285, AID2357]; format: functional
T1 sequence (P41143 whole entry): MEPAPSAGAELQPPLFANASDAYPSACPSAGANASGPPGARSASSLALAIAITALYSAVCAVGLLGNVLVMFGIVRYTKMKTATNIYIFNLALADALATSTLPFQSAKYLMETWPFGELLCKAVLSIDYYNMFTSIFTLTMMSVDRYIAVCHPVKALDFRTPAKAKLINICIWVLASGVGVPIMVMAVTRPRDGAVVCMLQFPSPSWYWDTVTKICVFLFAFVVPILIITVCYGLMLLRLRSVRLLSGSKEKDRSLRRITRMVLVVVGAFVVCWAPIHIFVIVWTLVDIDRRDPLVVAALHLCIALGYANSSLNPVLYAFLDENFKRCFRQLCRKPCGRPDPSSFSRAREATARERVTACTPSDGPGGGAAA

Mu-type opioid receptor [2] = target: T2, Mu-type opioid receptor (Homo sapiens, UniProt P35372); experiment: SAR Analysis of Antagonists of the MOR Receptor using an Image-Based Assay - Set 2. [Related pubchem assays (depositor defined):AID1777, AID1785, AID1786, AID1966, AID2133, AID2136, AID2284, AID2285, AID2420]; format: functional
T2 sequence (P35372 whole entry): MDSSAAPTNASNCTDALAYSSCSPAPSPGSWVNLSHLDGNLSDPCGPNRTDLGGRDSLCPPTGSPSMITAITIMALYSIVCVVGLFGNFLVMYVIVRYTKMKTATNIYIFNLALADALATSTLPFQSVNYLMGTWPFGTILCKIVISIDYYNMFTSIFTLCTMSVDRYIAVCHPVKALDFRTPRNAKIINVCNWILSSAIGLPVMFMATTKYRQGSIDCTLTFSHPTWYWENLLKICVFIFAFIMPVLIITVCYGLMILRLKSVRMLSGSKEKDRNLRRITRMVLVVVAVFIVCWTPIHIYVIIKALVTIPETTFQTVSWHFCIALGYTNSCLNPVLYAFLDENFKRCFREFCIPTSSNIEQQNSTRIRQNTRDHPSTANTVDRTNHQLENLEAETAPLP

[3] = target: T3, Kappa-type opioid receptor (Homo sapiens, UniProt P41145); experiment: SAR analysis of Antagonists of the Kappa Opioid Receptor (KOR) using an Image-Based Assay - Set 2. [Related pubchem assays (depositor defined):AID1777, AID1785, AID1786, AID1966, AID2133, AID2136, AID2284, AID2285, AID2348]; format: functional
T3 sequence (P41145 whole entry): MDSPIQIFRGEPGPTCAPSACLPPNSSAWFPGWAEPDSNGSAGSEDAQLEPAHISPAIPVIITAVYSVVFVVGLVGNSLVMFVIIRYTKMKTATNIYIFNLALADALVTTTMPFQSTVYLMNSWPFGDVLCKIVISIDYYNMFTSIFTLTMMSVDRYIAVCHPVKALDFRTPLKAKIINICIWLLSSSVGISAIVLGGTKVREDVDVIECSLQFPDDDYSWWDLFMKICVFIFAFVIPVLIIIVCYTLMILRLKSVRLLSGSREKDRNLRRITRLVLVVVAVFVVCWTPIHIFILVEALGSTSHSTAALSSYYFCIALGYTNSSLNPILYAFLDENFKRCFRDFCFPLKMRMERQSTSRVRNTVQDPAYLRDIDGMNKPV

[4] = target: T3, Kappa-type opioid receptor; experiment: SAR analysis of Agonists of the Kappa Opioid Receptor (KOR) using an Image-Based Assay - Set 2. [Related pubchem assays (depositor defined):AID1777, AID1786, AID1966, AID2133, AID2136, AID2284, AID2285, AID2359]; format: functional
Mu-type opioid receptor [5] = target: T2, Mu-type opioid receptor; experiment: SAR Analysis of Agonists of the MOR Receptor using an Image-Based Assay - Set 2. [Related pubchem assays (depositor defined):AID1777, AID1785, AID1786, AID1966, AID2133, AID2136, AID2284, AID2285, AID2352]; format: functional
[6] = target: T1, Delta-type opioid receptor; experiment: SAR Analysis of Agonists of the DOR Receptor using an Image-Based Assay - Set 2. [Related pubchem assays (depositor defined):AID1777, AID1785, AID1786, AID1966, AID2133, AID2136, AID2284, AID2285, AID2370]; format: functional
[7] = target: T3, Kappa-type opioid receptor; experiment: SAR analysis of small molecule agonists of the kappa opioid receptor via a luminescent beta-arrestin assay - Set 2. [Related pubchem assays (depositor defined):AID1777, AID1785, AID1786, AID1966, AID2133, AID2136, AID2284, AID449737]; format: functional
Troponin, cardiac muscle = Troponin, cardiac muscle (Homo sapiens, UniProt P19429+P45379+P63316); experiment: Fluorescence-based biochemical high throughput dose response assay for activators of the calcium sensitivity of cardiac Regulated Thin Filaments (RTF). [Related pubchem assays (depositor defined):AID493008, AID493018, AID504382, AID504383]; format: protein-complex assay
[8] = target: T3, Kappa-type opioid receptor; experiment: SAR analysis of small molecule agonists of the kappa opioid receptor via a luminescent beta-arrestin assay - Set 3. [Related pubchem assays (depositor defined):AID1777, AID1785, AID1786, AID1966, AID2133, AID2136, AID2284, AID2500]; format: functional
Hexokinase-1 = Hexokinase-1 (Homo sapiens, UniProt P19367); experiment: hexokinase 1 activators, dose response, selectivity assay for HKDC1 activator project, biochemical (AID 504762); format: functional
Chain of Hexokinase-1 (P19367 whole entry): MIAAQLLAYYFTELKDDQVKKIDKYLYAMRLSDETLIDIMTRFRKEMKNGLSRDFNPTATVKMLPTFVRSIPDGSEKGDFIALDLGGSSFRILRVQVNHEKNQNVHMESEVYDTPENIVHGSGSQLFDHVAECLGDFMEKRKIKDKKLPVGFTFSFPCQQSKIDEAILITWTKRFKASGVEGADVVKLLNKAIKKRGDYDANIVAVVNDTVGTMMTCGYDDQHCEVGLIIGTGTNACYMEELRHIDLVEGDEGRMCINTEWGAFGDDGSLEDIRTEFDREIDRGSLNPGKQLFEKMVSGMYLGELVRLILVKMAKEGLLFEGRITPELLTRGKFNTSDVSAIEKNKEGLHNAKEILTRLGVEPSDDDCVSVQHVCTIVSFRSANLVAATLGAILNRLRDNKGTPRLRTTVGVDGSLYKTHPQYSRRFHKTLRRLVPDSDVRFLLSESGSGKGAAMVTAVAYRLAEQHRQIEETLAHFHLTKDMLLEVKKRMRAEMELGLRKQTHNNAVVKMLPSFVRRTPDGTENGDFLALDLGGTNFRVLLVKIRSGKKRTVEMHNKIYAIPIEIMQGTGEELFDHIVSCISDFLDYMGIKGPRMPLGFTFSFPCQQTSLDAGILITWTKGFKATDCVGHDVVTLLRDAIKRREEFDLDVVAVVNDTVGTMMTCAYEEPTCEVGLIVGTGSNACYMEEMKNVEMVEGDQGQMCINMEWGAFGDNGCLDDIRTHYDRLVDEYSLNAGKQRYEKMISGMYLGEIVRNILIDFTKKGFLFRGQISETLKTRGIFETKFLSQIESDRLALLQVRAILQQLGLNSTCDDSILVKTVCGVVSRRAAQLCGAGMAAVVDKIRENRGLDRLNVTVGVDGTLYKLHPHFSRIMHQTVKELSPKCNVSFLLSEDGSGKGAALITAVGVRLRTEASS

Hexokinase HKDC1 = Hexokinase HKDC1 (Homo sapiens, UniProt Q2TB90); experiment: HKDC1 hexokinase activators, dose response, biochemical, W721R variant (AID 504730); format: functional
Chain of Hexokinase HKDC1 (Q2TB90 whole entry): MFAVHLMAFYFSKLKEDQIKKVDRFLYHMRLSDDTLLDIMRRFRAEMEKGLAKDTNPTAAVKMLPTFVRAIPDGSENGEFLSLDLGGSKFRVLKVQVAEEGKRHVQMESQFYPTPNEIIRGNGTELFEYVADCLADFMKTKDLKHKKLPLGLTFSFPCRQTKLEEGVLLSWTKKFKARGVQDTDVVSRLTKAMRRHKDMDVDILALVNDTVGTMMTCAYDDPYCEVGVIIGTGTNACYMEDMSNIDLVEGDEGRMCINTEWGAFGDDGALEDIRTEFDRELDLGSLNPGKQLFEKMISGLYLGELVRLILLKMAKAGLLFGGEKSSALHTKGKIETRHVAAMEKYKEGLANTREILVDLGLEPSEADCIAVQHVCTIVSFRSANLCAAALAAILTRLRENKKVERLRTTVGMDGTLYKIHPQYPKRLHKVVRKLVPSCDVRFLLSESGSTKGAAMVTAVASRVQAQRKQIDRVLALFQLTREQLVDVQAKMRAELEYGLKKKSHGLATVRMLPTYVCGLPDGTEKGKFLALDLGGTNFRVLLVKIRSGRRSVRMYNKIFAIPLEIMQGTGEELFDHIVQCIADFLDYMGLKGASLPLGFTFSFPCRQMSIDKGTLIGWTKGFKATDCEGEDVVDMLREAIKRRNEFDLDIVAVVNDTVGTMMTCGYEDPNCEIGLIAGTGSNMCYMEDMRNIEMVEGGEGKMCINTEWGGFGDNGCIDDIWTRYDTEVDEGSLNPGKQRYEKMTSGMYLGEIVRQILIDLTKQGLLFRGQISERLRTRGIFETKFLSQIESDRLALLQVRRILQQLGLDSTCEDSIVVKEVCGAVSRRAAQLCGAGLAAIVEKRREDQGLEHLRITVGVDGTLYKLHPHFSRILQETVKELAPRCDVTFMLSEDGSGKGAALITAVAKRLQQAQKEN

- IC50 [1]: > 32 µM (inactive)
- IC50 (Mu-type opioid receptor [2]): > 32 µM (inactive)
- IC50 [3]: > 32 µM (inactive)
- EC50 [4]: 5.68 µM (active)
- EC50 (Mu-type opioid receptor [5]): > 32 µM (inactive)
- EC50 [6]: > 32 µM (inactive)
- EC50 [7]: 6.73 µM (active)
SMILES: Fc1ccc(CSc2nnc(-c3ccccn3)n2Cc2cccs2)c(F)c1

- EC50 (Troponin, cardiac muscle): > 71.5 µM (inactive)
SMILES: C=CCN1C(=O)c2ccccc2NC1c1cc(Br)cs1 (stereo unspecified)

- EC50 [8]: > 20 µM (inactive)
SMILES: FC(F)(F)c1cc(CSc2nnc(-c3ccncc3)n2Cc2ccco2)ccc1Cl

- EC50 (Hexokinase-1): > 80 µM (inactive)
- EC50 (Hexokinase HKDC1): > 80 µM (inactive)
SMILES: CC12CCC(C(=O)N/N=C/c3ccc(O)cc3O)(OC1=O)C2(C)C (stereo unspecified)
